The molecules below were run against Thymidine phosphorylase (Escherichia coli K-12, UniProt P07650) (assay: Inhibition of Escherichia coli TP).
Sequence of Thymidine phosphorylase (P07650 whole entry): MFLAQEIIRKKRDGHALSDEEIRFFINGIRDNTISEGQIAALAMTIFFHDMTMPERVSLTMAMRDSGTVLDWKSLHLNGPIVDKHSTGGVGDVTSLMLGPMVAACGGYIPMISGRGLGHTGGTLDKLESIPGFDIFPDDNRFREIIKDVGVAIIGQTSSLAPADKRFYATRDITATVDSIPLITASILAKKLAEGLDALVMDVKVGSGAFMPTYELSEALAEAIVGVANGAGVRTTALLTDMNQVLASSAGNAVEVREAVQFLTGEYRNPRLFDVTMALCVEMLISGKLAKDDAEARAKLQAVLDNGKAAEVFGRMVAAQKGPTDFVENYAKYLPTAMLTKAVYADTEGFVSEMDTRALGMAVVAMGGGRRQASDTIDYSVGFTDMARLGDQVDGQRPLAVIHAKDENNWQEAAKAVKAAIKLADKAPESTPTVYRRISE

| IC50 [µM] | SMILES |
| --- | --- |
| 2.3 | Oc1nc(O)c(Br)c(N2CCN(c3nc(O)nc(O)c3Br)CC2)n1 |
| 5.4 | OCC1CCCN(c2nc(O)nc(O)c2Cl)C1 (stereo unspecified) |
| 10.4 | Oc1nc(O)c(Cl)c(N2CCOCC2)n1 |
| 6.5 | OCC1CCCCN1c1nc(O)nc(O)c1Br (stereo unspecified) |
| 4.4 | Oc1nc(O)c(Cl)c(N2CCCC2)n1 |
| 5.5 | OCCC1CCN(c2nc(O)nc(O)c2Cl)CC1 |
| 8.7 | Oc1nc(O)c(Cl)c(N2CCN(c3nc(O)nc(O)c3Cl)CC2)n1 |
| 6.5 | OCC1CCCN(c2nc(O)nc(O)c2Br)C1 (stereo unspecified) |
| 6.1 | OCCC1CCN(c2nc(O)nc(O)c2Br)CC1 |
| 9.1 | Oc1nc(O)c(Br)c(N2CCCCC2)n1 |
| 5.5 | OCC1CCN(c2nc(O)nc(O)c2Br)CC1 |
| 2.5 | Oc1nc(O)c(Br)c(NCCNc2nc(O)nc(O)c2Br)n1 |
| 4 | Nc1[nH]c(=O)[nH]c(=O)c1Cl |
| 10.1 | Oc1nc(O)c(Cl)c(NC2CC2)n1 |
| 9.1 | NNc1nc(O)nc(O)c1Cl |
| 14 | Oc1nc(O)c(Cl)c(N2CCC2)n1 |
| 7.3 | Oc1nc(O)c(Cl)c(N2CCCCC2)n1 |
| 2 | Oc1nc(O)c(Br)c(N2CCC2)n1 |
| 4.3 | OCC1CCCCN1c1nc(O)nc(O)c1Cl (stereo unspecified) |
| 11.6 | Oc1nc(O)c(Br)c(N2CCOCC2)n1 |
| 3.5 | Oc1nc(O)c(Br)c(NC2CC2)n1 |

— ChEMBL document CHEMBL1138977, “Design and synthesis of novel 5,6-disubstituted uracil derivatives as potent inhibitors of thymidine phosphorylase” (Bioorg Med Chem Lett, 2006)
